Laboratory results published in US20240197820A1, “Bacteriocin for new application” (priority 2021, published 2024).
Entries after “also recorded” stand apart in the source; their conditions may differ. No end group written: not given here.

Experiments:
[1] = system: Lactococcus lactis LMG IL 1403; conditions: cited from earlier work
S. aureus ATCC 6538 [2] = assay: MIC assay in liquid culture (endpoint OD600); type: cell-based, Staphylococcus aureus; conditions: liquid culture 200 μl, M17 + 0.5% glucose, 37° C., overnight, 2-fold dilutions from 250 μg/ml
Description: (§1) Bacterial strains were grown overnight in liquid culture on rotary shakers or on agar plates using M17 media supplemented with 0.5% glucose. S. aureus ATCC 6538 and S. epidermidis ATCC 12228 liquid cultures and agar plates were grown anaerobically at 37° C. Culture volume utilized in MIC assays was 200 μl.
(§2) Determination of MIC values of a cerein 7B peptide (SEQ ID NO: 2) was performed in liquid cultures of S. aureus ATCC 6538 and S. epidermidis ATCC 12228. Growth was assessed by measuring endpoint OD600 values in a Spectramax i3 (Molecular Devices, CA, USA). Minimum inhibitory concentration (MIC) was defined as the lowest concentration which inhibited 50% of the growth of cultures as compared to reference cultures not exposed to the peptide. Concentration of the peptide was 250 μg/ml in well 11, diluted 2-fold per subsequent well as shown in Table 3 (concentrations rounded to the second decimal): […]

[3] = system: S. epidermidis ATCC 12228; assay: MIC assay in liquid culture (endpoint OD600); type: cell-based, Staphylococcus epidermidis; conditions: tested concentrations 0.24 to 250 μg/ml
Description: as §1, §2

S. aureus ATCC 6538 [4] = assay: Antimicrobial activity test on inoculated M17 agar plates (inhibition halo); type: cell-based, Staphylococcus aureus; conditions: 1 mg/ml, overnight incubation
Description: as §1
(§3) Antimicrobial activity of bacteriocin peptides was tested on M17 agar plates in Examples 1 and 3.
(§4) In Example 1, 2 μl of cerein 7B peptide (SEQ ID NO: 2) aqueous solutions at a concentration of 1 mg/ml were deposited on inoculated M17 agar plates of S. aureus ATCC 6538 and S. epidermidis ATCC 12228. In the case of S. epidermidis ATCC 12228, an equivalent amount of aureocin A53 aqueous solution (1 mg/ml concentration) was used as positive control.
In Example 3, 5 μl of bacteriocin peptides (SEQ ID NO: 2, 4-51) aqueous solutions at a concentration of 1 mg/ml were deposited on inoculated M17 agar plates of S. aureus ATCC 6538. After overnight incubation, the presence of an inhibition halo was considered as a positive result of antimicrobial activity.

[5] = system: S. epidermidis ATCC 12228; assay: as above; type: cell-based, Staphylococcus epidermidis; conditions: 2 μl of aqueous solution, 1 mg/ml, overnight incubation
Description: as §1, §3, §4

Substance | activity against Lactococcus lactis LMG IL 1403 [1] | MIC (lowest concentration which inhibited 50% of the growth of cultures) (S. aureus ATCC 6538 [2]) [µg/mL] | growth inhibition in MIC assay [3] | inhibition halo (antimicrobial activity on agar plate) (S. aureus ATCC 6538 [4]; 2 μl of aqueous solution, chemically synthesized peptide) | inhibition halo (antimicrobial activity on agar plate) [5] | antimicrobial activity of mutants (inhibition halo) (S. aureus ATCC 6538 [4]; 5 μl of aqueous solution, M17 agar plate, peptides synthesized in vitro (PURExpress))
GWWNSWGKCVAGTIGGAGTGGLGGAAAGSAVPVIGTGIGGAIGGVSGGLTGAATFC (cysteines drawn unpaired) [cerein 7B] | demonstrated its activity | 15.63 | No growth inhibition was observed | An inhibition halo was visible | no inhibition halo was visible; also recorded: no inhibition halo was present | 
GWWNSWGKCVAGTIGGAGTGGLGGAAAGSAVPVIGTGIGGAIGGVSGGLTGAATFCW (mutant 48 (E2)) [SEQ ID NO: 51] |  |  |  |  |  | did not compromise its antimicrobial activity
aureocin A53 [reference compound] |  |  |  |  | an inhibition halo was present | 
